Assay results from patent publication US20260152636A1, “GELLING SOLUTIONS FOR ADMINISTRATION OF COMPOUNDS TO THE INNER EAR” (Spiral Therapeutics, Inc., priority 2020, published 2026).

What was measured:
[1] = guinea pig, in vivo
Protocol: (§1) An 8-week toxicology study was performed to assess the safety and pharmacokinetics of intratympanic administration of a PEG-trilysine polymer formulation in Hartley guinea pigs. […] Hartley guinea pigs of both sexes [n=46 (23 males and 23 females) were used for the study. Following 3 to 7 days of acclimation, all guinea pigs underwent baseline ABRs tests at 4, 10, and 20 kHz.
(§2) Perilymph samples were collected at terminus at 3 days, 1 week, 4 weeks, and 8 weeks post administration.

[2] = tested on: MD patients; conditions: cited from earlier work
[3] = in vivo; conditions: both, Hartley, guinea pig, other: intratympanic, 5 μL
Protocol: as §1, §2

[4] = Dexamethasone levels in plasma and perilymph after single IT injection in green monkey; assay type: in vivo, African green monkey (Chlorocebus sabaeus); conditions: through Day 22
Protocol: Information on absorption, distribution and pharmacokinetics of the PEG-trilysine polymer formulation by otic administration were obtained from a pharmacokinetic (PK) and tolerability study conducted in the African green monkey (Chlorocebus sabaeus)
The perilymph and plasma concentrations of the PEG-trilysine polymer formulation were evaluated following a single IT injection. Perilymph and plasma levels of test and control articles were measured after 1, 10 and 22 days. Given the small study size (N=9 enrolled) and number of total ears treated, PK data are presented as descriptive statistics only.
The absorption and distribution of dexamethasone was also investigated in African green monkeys.

[5] = tested on: Hartley guinea pigs; experiment: 8-week safety study, ABR threshold shift after intratympanic injection; assay type: in vivo, guinea pig; conditions: IT injection; Days 3 and 14; positive control
Source text: Groups 1-3 were further divided into subgroups with varying survival times up to 8 weeks. The number of ears for the 4-week and 8-week timepoints in this study were powered to detect a 20 dB shift from baseline in the ABR threshold measurement at each of the three test frequencies (1-way t-test; independent means; apriori; power=0.95), using sample data to estimate variability from pilot studies. Auditory brainstem responses and blood sampling were collected at specified in-life timepoints, including terminus. Perilymph sampling, middle ear visualization, and histology sample preparation were performed on specified animals at terminus.

**Q.** For `C[C@@H]1C[C@H]2[C@@H]3CCC4=CC(=O)C=C[C@]4(C)[C@@]3(F)[C@@H](O)C[C@]2(C)[C@@]1(O)C(=O)CO` [Dexamethasone, dexamethasone], which “Perilymph Mean (ng/mL)” value [1] is on record?
**A.** BLQ

**Q.** And the “Plasma Mean (ng/mL)” value [1]?
**A.** BLQ

**Q.** And the “Incidence of TM perforation” value ([2]; end of Phase 1b study, 3 mg or 12 mg single IT injection)?
**A.** 3%

**Q.** What about the Safety and tolerability ([2]; single IT injection of 12 mg, formulated with poloxamer 407, unilateral MD) of the same compound?
**A.** safe, well-tolerated

**Q.** What about the concentration at 1 week ([3]; perilymph) of the same compound?
**A.** 1700 ng/mL

**Q.** And the concentration at 3 days ([3]; perilymph)?
**A.** 109 ng/mL

**Q.** What about the concentration at 1 week ([3]; plasma) of the same compound?
**A.** 3.2 ng/mL

**Q.** And the concentration at 3 days ([3]; plasma)?
**A.** 5.5 ng/mL

**Q.** What about the “Plasma levels of dexamethasone over time” value [4] of the same compound?
**A.** remained within detectable limits through Day 22

**Q.** Which “Improvement in aural fullness” value ([2]; IT therapy, one study) does the source give for gentamicin here?
**A.** 31%

**Q.** What about the ABR threshold shift [5] of the same compound?
**A.** ≥ 55 dB
